Measurements published in patent US9242937B2, “Pharmaceutically active disubstituted pyridine derivatives” (Bayer Intellectual Property GmbH, priority 2011, dated 2016).

Tests used:
[1] = system: LPS-induced TNF alpha release in PBMCs; assay: TNF alpha release assay (LPS-stimulated PBMCs); format: cell-based; conditions: Homo sapiens, PBMC, 1 μg/mL LPS, 6 h, read-out: TNF alpha release (activity range), IC50
Method: Freshly isolated peripheral blood mononuclear cells (PBMCs) were seeded in 96-well cell culture plates with 200,000 cells in 100 μl cell culture medium (DMEM cell culture medium+glutamine from PAN Biotech GmbH, Aidenbach, Germany) supplemented with 10% fetal calf serum (PAA Laboratories GmbH, Pasching, Austria) per well and incubated overnight at 37° C., 5% CO2. To each well, 100 μL cell culture medium with 2× concentrated test compounds diluted from 10 mM DMSO stocks, or 100 μL DMEM with 0.4% DMSO for control wells, was added. The compounds of general formula (I) summarized in Table 6 were used in this assay. After incubation for 1 h at 37° C., 5% CO2, cells were stimulated with 1 μg/mL LPS (Lipopolysaccharides, Sigma, catalog #L4391-1 MG; 1 mg/ml stock solution), or left untreated for negative controls, and plates were incubated for 6 h at 37° C./5% CO2. The cell culture plates were centrifuged at 2000 rpm for 5 minutes, and supernatants were transferred to fresh 96-well polypropylene plates. 25 μL of supernatants were transferred into 96-well-plates of the human TNF alpha-tissue culture kit (Meso Scale Discovery, Gaithersburg, Md., USA), and manufacturer's instructions were followed for analysis of TNF alpha levels. Chemoluminescence was measured in the Mesoscale Sector Imager, and IC50 values were calculated with the software Excel Fit (IDBS, Guildford, UK) from 2-fold dilution series comprising at least 6 concentrations in duplicates.

[2] = system: NF-kappaB reporter gene activation in HEK293 cells; assay: NF-kappaB reporter assay; format: cell-based; conditions: Homo sapiens, pNFkBluc reporter, 20 ng/ml TNF alpha, 5 h, read-out: NF-kappaB activation (activity range), IC50
Method: Cells were maintained in RPMI cell culture medium+glutamine (PAN Biotech GmbH, Aidenbach, Germany) supplemented with 10% fetal calf serum (PAA Laboratories GmbH, Pasching, Austria) and grown at 37° C., 5% CO2. HEK293 cells grown to 50% confluence were transfected with the Amaxa® Cell Line Nucleofector® Kit V (Lonza, Basel, Switzerland, catalog # VCA-1003). Transfections were performed according to manufacturer's optimized protocol for transfection of HEK293 cells. In brief, 2×10^5 cells were transfected with 5 μg highly purified plasmid DNA. Cells were transfected with a NF-kappa B reporter plasmid (pNFkBluc), pTALluc for control, or pMAXGFP for transfection control. After transfection, cells were taken up in 500 μL RPMI1640 cell culture medium, incubated for 1 h at 37° C., and 4.5 ml DMEM without phenol red were added per transfection. Transfected cells were seeded in 96 well plates (Greiner Bio-One, Frickenhausen, Germany, catalog #655098) with 100 μL cell suspension per well and incubated for 48 h. To each well, 100 μL DMEM with 2× concentrated compound diluted from 10 mM DMSO stocks, or 100 μL DMEM with 0.4% DMSO for control wells, was added. The compounds of general formula (I) summarized in Table 6 were used in this assay. Cells were stimulated with 20 ng/ml TNF alpha, and plates were incubated for 5 h at 37° C./5% CO2. Cell culture supernatants were removed to leave 100 μl medium per well, followed by addition of 100 μl Bright Glo luciferase assay reagent (Promega, Madison, Wis., USA, catalog # E2620), and shaking for 5 minutes in the dark. Luminescence was measured with a Victor Photospectrometer (Perkin Elmer, Waltham, Mass., USA). IC50 values were calculated with the software Excel Fit (IDBS, Guildford, UK) from 2-fold dilution series comprising at least 10 concentrations in duplicates.

[3] = target: T1, CDK2/CyclinA (Homo sapiens, UniProt P24941); assay: LanthaScreen Eu Kinase Binding Assay, CDK2; conditions: tracer 236, read-out: CDK2 (activity range), Kd
T1 construct: purchased Proqinase
Method: This protocol describes how the LanthaScreen Eu Kinase Binding Assay was performed to determine dissociation constants (Kd) of compounds of general formula (I) and CDK/Cyclin complexes. The principle behind this assay is based upon the binding and displacement of an Alexa Fluor 647-labeled tracer, which binds to the active site of kinases. Binding of the tracer to the kinase is detected using a Eu-labeled antibody. Simultaneous binding of both the tracer and antibody to the kinase gives rise to a FRET-signal. Binding of an inhibitor to the kinase competes for binding with the tracer, resulting in a loss of FRET.
The compounds of general formula (I) summarized in Table 1 were diluted from a 10 mM DMSO stock solution 1:10 in a total volume of 15 μL DMSO. This compound predilution was then serial diluted 1:3 over 8 steps in DMSO and briefly spun down. Each compound solution was now diluted 1:33.33 in kinase buffer (HEPES: 20 mM, pH: 8.0; MgCl2: 10 mM; DTT: 1 mM; Brij-35: 0.01%), mixed thoroughly and spun down. For every sample, 5 μL of the diluted compound were mixed with 5 μL tracer working solution (e.g. 60 nM tracer 236 in kinase buffer for CDK2/Cyclin A) and 5 μL CDK/Cyclin/Anti-GST-AB-working solution (e.g. 15 nM CDK2/Cyclin A, 1:250 dilution of Anti-GST-AB in kinase buffer) in a well of a small volume 384 well plate (Corning Incorporated, Corning, N.Y., USA; order no. 3673). The tracer concentration was adjusted to its dissociation constant (Kd) for the CDK/Cyclin, which was 30 nM for CDK2/Cyclin A, CDK7/Cyclin H and CDK9/Cyclin T1, 20 nM for CDK8/Cyclin C, and 35 nM for CDK9/Cyclin K. For negative controls, in each well 5 μL of DMSO working solution (3% DMSO diluted in kinase buffer) was mixed with 5 μL Anti-GST-AB working solution (e.g. 1:250 dilution of Anti-GST-AB in kinase buffer for CDK2/Cyclin A) and 5 μL Tracer working solution (e.g. 60 nM Tracer 236 in kinase buffer for CDK2/Cyclin A). For positive controls, in each well 5 μL of DMSO working solution (3% DMSO diluted in kinase buffer) was mixed with 5 μL CDK/Cyclin/Anti-GST-AB-working solution: (e.g. 15 nM CDK2/Cyclin A, 1:250 dilution of Anti-GST-AB in kinase buffer) and 5 μL Tracer working solution (e.g. 60 nM Tracer 236 in kinase buffer for CDK2/Cyclin A). Positive and negative controls were calculated from at least 8 different sample wells. The 384 well plates were mixed in a Teleshaker plate mixer (Beckman Coulter, Brea, Calif., USA) at 2000 rpm for 40 sec, and incubated for 1 h at room temperature before reading. The FRET signal was measured at 340 nm excitation, 665 nm and 615 nm emission (for the kinase tracer and LanthaScreen Eu-AB, respectively) with an Envision spectrophotometer (Perkin Elmer, Waltham, Mass., USA) with 50 μs delay and 300 μs integration time. Kd values were determined from the sigmoidal dose response curves with the software Quattro Workflow (Quattro GmbH, Munich, Germany).

SMILES	IC50 [1] [nM]	IC50 [2] [nM]	Kd [3] [nM]
COc1ccccc1-c1ccnc(Nc2ccccc2)c1 [Compound B1, 4-(2-Methoxyphenyl)-N-phenylpyridin-2-amine]	> 10000	> 10000	–
COc1ccccc1-c1ccnc(Nc2cccc([N+](=O)[O-])c2)c1 [Compound C1, 4-(2-Methoxyphenyl)-N-(3-nitrophenyl)pyridin-2-amine]	1000 to 10000	1000 to 10000	–
COc1ccccc1-c1ccnc(Nc2cccc(S(N)(=O)=O)c2)c1 [Compound D1, 3-[(4-(2-Methoxyphenyl)pyridin-2-yl)amino]benzenesulfonamide]	100 to 1000	100 to 1000	< 100
COc1ccccc1-c1ccnc(Nc2ccc(S(N)(=O)=O)cc2)c1 [Compound E1, 4-[(4-(2-Methoxyphenyl)pyridin-2-yl)amino]benzenesulfonamide]	1000 to 10000	1000 to 10000	< 100
COc1ccccc1-c1ccnc(Nc2cccc(S(C)(=O)=O)c2)c1 [Compound F1, 4-(2-Methoxyphenyl)-N-(3-(methylsulfonyl)phenyl)pyridin-2-amine]	1000 to 10000	1000 to 10000	100 to 1000
COc1cc(F)ccc1-c1ccnc(Nc2cccc(CS(N)(=O)=O)c2)c1 [Compound G1, [3-((4-(4-Fluoro-2-methoxyphenyl)pyridin-2-yl)amino)phenyl]-methanesulfonamide]	100 to 1000	100 to 1000	100 to 1000
COc1cc(F)ccc1-c1ccnc(Nc2cccc(CS(=O)(=O)N(C)C)c2)c1 [Compound G3, 1-[3-((4-(4-Fluoro-2-methoxyphenyl)pyridin-2-yl)amino)phenyl]-N,N-dimethylmethanesulfonamide]	–	–	100 to 1000
COc1cc(F)ccc1-c1ccnc(Nc2cccc(NS(C)(=O)=O)c2)c1 [Compound J1, N-[3-((4-(4-Fluoro-2-methoxyphenyl)pyridin-2-yl)amino)phenyl]-methanesulfonamide]	–	–	< 100
COc1cc(F)ccc1-c1ccnc(Nc2cccc(NC(C)=O)c2)c1 [Compound J2, N-[3-((4-(4-Fluoro-2-methoxyphenyl)pyridin-2-yl)amino)phenyl]-acetamide]	–	–	100 to 1000
CCCNS(=O)(=O)Cc1cccc(Nc2cc(-c3ccc(F)cc3OC)ccn2)c1 [Compound K1, 1-[3-((4-(4-Fluoro-2-methoxyphenyl)pyridin-2-yl)amino)phenyl]-N-propylmethanesulfonamide]	–	–	100 to 1000
